Test results: PubChem BioAssay (NCI)
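Five concentrations, 48 hours, 96-well plates. At the TGI there is no net growth.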

How the values were obtained:
Experiment in all cases: NCI tumour cell line growth inhibition, 48 h
786-0 renal = test system: 786-0 renal
DMS 273 small cell lung = test system: DMS 273 small cell lung
SK-MEL-2 melanoma = test system: SK-MEL-2 melanoma
M19-MEL melanoma = test system: M19-MEL melanoma
A549 NSCLC = test system: A549 NSCLC
MALME-3M melanoma = test system: MALME-3M melanoma
KM12 colon = test system: KM12 colon
COLO 205 colon = test system: COLO 205 colon
NCI-H460 lung = test system: NCI-H460 lung
HOP-92 NSCLC = test system: HOP-92 NSCLC
U251 CNS = test system: U251 CNS
SF-539 CNS = test system: SF-539 CNS
HL-60(TB) leukemia = test system: HL-60(TB) leukemia
SF-295 CNS = test system: SF-295 CNS
LOX IMVI melanoma = test system: LOX IMVI melanoma
HCC-2998 colon = test system: HCC-2998 colon
LXFL 529 NSCLC = test system: LXFL 529 NSCLC
RXF 393 renal = test system: RXF 393 renal
CCRF-CEM leukemia = test system: CCRF-CEM leukemia
UO-31 renal = test system: UO-31 renal
SK-MEL-28 melanoma = test system: SK-MEL-28 melanoma
OVCAR-4 ovarian = test system: OVCAR-4 ovarian
RPMI-8226 leukemia = test system: RPMI-8226 leukemia
HCT-15 colon = test system: HCT-15 colon
HT29 colon = test system: HT29 colon
SK-OV-3 ovarian = test system: SK-OV-3 ovarian
SNB-75 CNS = test system: SNB-75 CNS
DLD-1 colon = test system: DLD-1 colon
A498 renal = test system: A498 renal
SF-268 CNS = test system: SF-268 CNS
OVCAR-5 ovarian = test system: OVCAR-5 ovarian
HCT-116 colon = test system: HCT-116 colon
SR leukemia = test system: SR leukemia
DMS 114 small cell lung = test system: DMS 114 small cell lung
IGROV1 ovarian = test system: IGROV1 ovarian
K-562 leukemia = test system: K-562 leukemia
SN12C renal = test system: SN12C renal
MOLT-4 leukemia = test system: MOLT-4 leukemia
NCI-H522 lung = test system: NCI-H522 lung
UACC-62 melanoma = test system: UACC-62 melanoma
M14 melanoma = test system: M14 melanoma
SW-620 colon = test system: SW-620 colon
OVCAR-3 ovarian = test system: OVCAR-3 ovarian
ACHN renal = test system: ACHN renal
SNB-19 CNS = test system: SNB-19 CNS
HOP-18 NSCLC = test system: HOP-18 NSCLC
NCI-H23 lung = test system: NCI-H23 lung
TK-10 renal = test system: TK-10 renal
CAKI-1 renal = test system: CAKI-1 renal
SK-MEL-5 melanoma = test system: SK-MEL-5 melanoma
HOP-62 NSCLC = test system: HOP-62 NSCLC
SNB-78 CNS = test system: SNB-78 CNS
NCI-H226 lung = test system: NCI-H226 lung
OVCAR-8 ovarian = test system: OVCAR-8 ovarian
KM20L2 colon = test system: KM20L2 colon
EKVX NSCLC = test system: EKVX NSCLC

`O=C1CC(=O)N(CCc2ccccc2)S(=O)(=O)N1CCc1ccccc1` was tested, and the TGI (786-0 renal) was 30.8 µM, the TGI (DMS 273 small cell lung) was 43.8 µM and the TGI (SK-MEL-2 melanoma) was 48.3 µM. The TGI (M19-MEL melanoma) was greater than 100 µM, the TGI (A549 NSCLC) was 64.8 µM and the TGI (MALME-3M melanoma) was 79.5 µM. The TGI (KM12 colon) was 39.5 µM, the TGI (COLO 205 colon) was 44.2 µM and the TGI (NCI-H460 lung) was greater than 100 µM. It also gave a TGI (HOP-92 NSCLC) of 32.3 µM, a TGI (U251 CNS) of 30.5 µM and a TGI (SF-539 CNS) of 43.5 µM. It also gave a TGI (HL-60(TB) leukemia) of 38.3 µM, a TGI (SF-295 CNS) of 35.4 µM and a TGI (LOX IMVI melanoma) of 3.72 µM. The TGI (HCC-2998 colon) was greater than 100 µM, the TGI (LXFL 529 NSCLC) was 40.7 µM and the TGI (RXF 393 renal) was 83.4 µM. It also gave a TGI (CCRF-CEM leukemia) of 35 µM, a TGI (UO-31 renal) of 40.5 µM and a TGI (SK-MEL-28 melanoma) greater than 100 µM. For the same compound, the TGI (OVCAR-4 ovarian) was 44.6 µM, the TGI (RPMI-8226 leukemia) was 52 µM and the TGI (HCT-15 colon) was greater than 100 µM. The TGI (HT29 colon) was 47.5 µM, the TGI (SK-OV-3 ovarian) was 61 µM and the TGI (SNB-75 CNS) was 84.7 µM. For the same compound, the TGI (DLD-1 colon) was greater than 100 µM, the TGI (A498 renal) was 34.2 µM and the TGI (SF-268 CNS) was 80.8 µM. It also gave a TGI (OVCAR-5 ovarian) of 64.4 µM, a TGI (HCT-116 colon) of 74.5 µM and a TGI (SR leukemia) of 48.2 µM. It also gave a TGI (DMS 114 small cell lung) of 48.6 µM, a TGI (IGROV1 ovarian) of 42 µM and a TGI (K-562 leukemia) of 58.1 µM. The TGI (SN12C renal) was greater than 100 µM, the TGI (MOLT-4 leukemia) was 44.2 µM and the TGI (NCI-H522 lung) was 37.5 µM. It also gave a TGI (UACC-62 melanoma) of 77.7 µM, a TGI (M14 melanoma) greater than 100 µM and a TGI (SW-620 colon) greater than 100 µM. The TGI (OVCAR-3 ovarian) was 36.8 µM, the TGI (ACHN renal) was greater than 100 µM and the TGI (SNB-19 CNS) was 87.4 µM. It also gave a TGI (HOP-18 NSCLC) greater than 100 µM, a TGI (NCI-H23 lung) of 69.1 µM and a TGI (TK-10 renal) greater than 100 µM. The TGI (CAKI-1 renal) was 51.4 µM, the TGI (SK-MEL-5 melanoma) was 44.2 µM and the TGI (HOP-62 NSCLC) was greater than 100 µM.

Compound `[N-]=[N+]=NC(CBr)c1cn([C@H]2C[C@H](O)[C@@H](CO)O2)c(=O)[nH]c1=O` (some centres undefined) has a TGI (786-0 renal) greater than 100 µM, a TGI (DMS 273 small cell lung) greater than 100 µM and a TGI (SK-MEL-2 melanoma) greater than 100 µM. The TGI (M19-MEL melanoma) was greater than 100 µM, the TGI (A549 NSCLC) was greater than 100 µM and the TGI (MALME-3M melanoma) was greater than 100 µM. It also gave a TGI (KM12 colon) greater than 100 µM, a TGI (COLO 205 colon) greater than 100 µM and a TGI (NCI-H460 lung) greater than 100 µM. For the same compound, the TGI (HOP-92 NSCLC) was greater than 100 µM, the TGI (U251 CNS) was greater than 100 µM and the TGI (SF-539 CNS) was greater than 100 µM. For the same compound, the TGI (HL-60(TB) leukemia) was greater than 100 µM, the TGI (SF-295 CNS) was greater than 100 µM and the TGI (LOX IMVI melanoma) was greater than 100 µM. For the same compound, the TGI (HCC-2998 colon) was greater than 100 µM, the TGI (LXFL 529 NSCLC) was greater than 100 µM and the TGI (RXF 393 renal) was greater than 100 µM. The TGI (CCRF-CEM leukemia) was greater than 100 µM, the TGI (UO-31 renal) was greater than 100 µM and the TGI (SK-MEL-28 melanoma) was greater than 100 µM. For the same compound, the TGI (RPMI-8226 leukemia) was greater than 100 µM, the TGI (SNB-78 CNS) was greater than 100 µM and the TGI (HCT-15 colon) was greater than 100 µM. It also gave a TGI (HT29 colon) greater than 100 µM, a TGI (SK-OV-3 ovarian) greater than 100 µM and a TGI (SNB-75 CNS) greater than 100 µM. For the same compound, the TGI (DLD-1 colon) was greater than 100 µM, the TGI (NCI-H226 lung) was greater than 100 µM and the TGI (OVCAR-5 ovarian) was greater than 100 µM. The TGI (HCT-116 colon) was greater than 100 µM, the TGI (OVCAR-8 ovarian) was greater than 100 µM and the TGI (SR leukemia) was greater than 100 µM. It also gave a TGI (DMS 114 small cell lung) greater than 100 µM, a TGI (IGROV1 ovarian) greater than 100 µM and a TGI (K-562 leukemia) greater than 100 µM. For the same compound, the TGI (SN12C renal) was greater than 100 µM, the TGI (MOLT-4 leukemia) was greater than 100 µM and the TGI (NCI-H522 lung) was greater than 100 µM. For the same compound, the TGI (KM20L2 colon) was greater than 100 µM, the TGI (UACC-62 melanoma) was greater than 100 µM and the TGI (M14 melanoma) was greater than 100 µM. It also gave a TGI (SW-620 colon) greater than 100 µM, a TGI (OVCAR-3 ovarian) greater than 100 µM and a TGI (EKVX NSCLC) greater than 100 µM. For the same compound, the TGI (ACHN renal) was greater than 100 µM, the TGI (SNB-19 CNS) was greater than 100 µM and the TGI (HOP-18 NSCLC) was greater than 100 µM. The TGI (NCI-H23 lung) was greater than 100 µM, the TGI (TK-10 renal) was greater than 100 µM and the TGI (CAKI-1 renal) was greater than 100 µM. For the same compound, the TGI (SK-MEL-5 melanoma) was greater than 100 µM and the TGI (HOP-62 NSCLC) was greater than 100 µM.
